The structures appear in SMILES notation. pIC50: −log10 of the molar value. “Also recorded” adds a separate entry of the source. Where two headings read alike, the source gives them in different places. A value given as a limit tells only on which side of the number the result lay.

For this experiment, the target named is recombinant guinea pig liver TGase (Cavia cutleri (Guinea pig), UniProt P08587). Put plainly: biochemical. The format is biochemical. Here is the method: ENZYME INHIBITION BY COMPOUNDS 14a-c, 14l, 15a, 15d-k, 15m-q, 30a, 30r, 30t, 37a and 38a: For enzymology studies of these compounds, recombinant guinea pig liver TGase was expressed in Escherichia coli and effectively purified (Gillet, S. M. F. G. et al J. N., Prot. Exp. & Purif. 2004, 33, 256).
The mode of inhibition was determined for the representative lead compound 14a through non-linear regression of initial rate data to the Michaelis-Menten equation (FIG. 1).
For the ensuing enzymatic tests, recombinant guinea pig liver TGase was expressed in E. Coli and effectively purified.
Kinetic runs were recorded on a Cary 100 BIO UV-Visible spectrophotometer at 405 nm and 25° C., in a buffer composed of 50 mM CaCl2, 50 μM EDTA and 0.1 M MOPS (pH 7.0). All aqueous solutions were prepared using de-ionized water purified from the Millipore BioCell system. […] Factor XIIIa activity was measured using a coupled-enzyme assay (Day, N.; Keillor, J. W. Anal. Biochem. 1999, 274, 141). Factor XIIIa, was added to a final concentration of 0.89 μg/mL to a pH 8.5 solution (0.1 M Tris-HCl, 5 mM CaCl2 and 10 mM DDT) of 0.5 mM β-NADH, 3.3 mM Na-acetyl-L-lysine methyl ester, 10 mM α-ketoglutaric acid sodium salt and 297 μg/mL glutamate dehydrogenase (GDH).

[1] abbreviates: IC50 (μM), Table 6, value in brackets.
Setting [2] is: IC50 (μM), class symbol, Table 6, Huisgen [3+2] cycloaddition products.
[3] abbreviates: Table 1, substituent on the cinnamoyl aromatic group, read-out: IC50 (μM), class symbol.
Setting [4] is: Table 1, value in brackets, read-out: IC50.

recombinant guinea pig liver TGase, sequence (P08587 whole entry): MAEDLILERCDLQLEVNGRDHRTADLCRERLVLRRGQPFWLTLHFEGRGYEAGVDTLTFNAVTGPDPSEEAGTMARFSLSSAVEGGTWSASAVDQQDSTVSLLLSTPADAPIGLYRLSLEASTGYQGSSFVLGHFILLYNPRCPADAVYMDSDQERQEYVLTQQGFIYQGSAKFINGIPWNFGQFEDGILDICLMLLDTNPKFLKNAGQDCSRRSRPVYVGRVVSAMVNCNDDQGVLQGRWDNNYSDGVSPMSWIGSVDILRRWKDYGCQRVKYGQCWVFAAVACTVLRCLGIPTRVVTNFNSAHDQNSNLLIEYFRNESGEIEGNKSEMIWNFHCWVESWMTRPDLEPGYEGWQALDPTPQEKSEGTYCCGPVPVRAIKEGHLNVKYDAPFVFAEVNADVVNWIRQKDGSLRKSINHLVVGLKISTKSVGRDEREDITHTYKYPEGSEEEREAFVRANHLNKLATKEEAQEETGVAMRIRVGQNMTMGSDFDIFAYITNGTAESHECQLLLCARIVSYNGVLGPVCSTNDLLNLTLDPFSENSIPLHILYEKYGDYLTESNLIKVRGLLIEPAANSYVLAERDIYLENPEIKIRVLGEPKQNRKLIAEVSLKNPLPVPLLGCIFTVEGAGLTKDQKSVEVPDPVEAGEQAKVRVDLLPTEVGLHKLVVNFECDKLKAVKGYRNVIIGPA

As for `O=C(/C=C/c1ccc([N+](=O)[O-])cc1)c1cn(Cc2ccccc2)nn1` [Compound 4a, (E)-1-(1-benzyl-1H-1,2,3-triazol-4-yl)-3-(4-nitrophenyl)prop-2-en-1-one], the pIC50 was above 4.70. The pIC50 (read-out: IC50) is 5.37.

Consider `CCCCCCCCn1cc(C(=O)/C=C/c2ccc([N+](=O)[O-])cc2)nn1` [Compound 4b, (E)-3-(4-nitrophenyl)-1-(1-octyl-1H-1,2,3-triazol-4-yl)prop-2-en-1-one], for which the pIC50 is 4.30 to 4.70. In addition, under “read-out: IC50”, the pIC50 was 4.55.

In the case of `O=C(/C=C/c1ccc([N+](=O)[O-])cc1)c1cn(C2CCCC2)nn1` [Compound 4c, (E)-1-(1-cyclopentyl-1H-1,2,3-triazol-4-yl)-3-(4-nitrophenyl)prop-2-en-1-one], the pIC50 is below 4.30 and the “TGase inhibitory activity (in words)” value is given as “relatively poor activity”. For the same compound, for the setting “read-out: IC50”, the pIC50 is below 4.00.

Turning to `O=C(/C=C/c1ccc([N+](=O)[O-])cc1)c1cn(Cc2ccc([N+](=O)[O-])cc2)nn1` [Compound 4d, (E)-1-(1-(4-nitrobenzyl)-1H-1,2,3-triazol-4-yl)-3-(4-nitrophenyl)prop-2-en-1-one], the pIC50 was above 4.70, the “TGase inhibitory activity (in words)” value is reported as “most efficient inhibitors in the series” and the mode of inhibition result was “competitive inhibition”. Besides, the pIC50 (read-out: IC50) is 5.68.

`O=C(/C=C/c1ccc([N+](=O)[O-])cc1)c1cn(Cc2ccccn2)nn1` [Compound 4e, (E)-3-(4-nitrophenyl)-1-(1-((pyridin-2-yl)methyl)-1H-1,2,3-triazol-4-yl)prop-2-en-1-one]: the pIC50 is above 4.70 and the “TGase inhibitory activity (in words)” value is “lower potency”. The pIC50 (read-out: IC50) is 4.74.

Take `O=C(/C=C/c1ccc([N+](=O)[O-])cc1)c1cn(CC2CCCCC2)nn1` [Compound 4f, (E)-1-(1-(cyclohexylmethyl)-1H-1,2,3-triazol-4-yl)-3-(4-nitrophenyl)prop-2-en-1-one]: the pIC50 is above 4.70 and the “loss in potency (fold)” value is 2.5 fold. Also, for the setting “read-out: IC50”, the pIC50 was 4.96.

As for `O=C(/C=C/c1ccc([N+](=O)[O-])cc1)c1cn(Cc2cccc([N+](=O)[O-])c2)nn1` [Compound 4g, (E)-1-(1-(3-nitrobenzyl)-1H-1,2,3-triazol-4-yl)-3-(4-nitrophenyl)prop-2-en-1-one], the “reduction in potency (fold)” value is listed as 4-7 fold. Moreover, the IC50 under setting [1] is 9.4 µM. For the same compound, the IC50 under setting [2] was below 20 µM.

With `O=C(/C=C/c1ccc([N+](=O)[O-])cc1)c1cn(Cc2ccccc2[N+](=O)[O-])nn1` [Compound 4h, (E)-1-(1-(2-nitrobenzyl)-1H-1,2,3-triazol-4-yl)-3-(4-nitrophenyl)prop-2-en-1-one], the “reduction in potency (fold)” value was 4-7 fold. Moreover, the IC50 under setting [1] came out at 10.7 µM. Besides, the IC50 under setting [2] is below 20 µM.

On to `O=C(/C=C/c1ccc([N+](=O)[O-])cc1)c1cn(Cc2c(F)c(F)c(F)c(F)c2F)nn1` [Compound 4i], for which the pIC50 is below 4.30.

For `O=C(/C=C/c1ccc([N+](=O)[O-])cc1)c1cn(Cc2cc(C(F)(F)F)cc(C(F)(F)F)c2)nn1` [Compound 4j, (E)-1-(1-(3,5-bis(trifluoromethyl)benzyl)-1H-1,2,3-triazol-4-yl)-3-(4-nitrophenyl)prop-2-en-1-one], the “TGase inhibitory activity (in words)” value is listed as “activity was lost”. Also, the concentration for half-maximal inhibition (IC50) (Table 6, Huisgen [3+2] cycloaddition products, read-out: IC50 (μM), class symbol) is above 50 µM. Further, the pIC50 (Table 6, value in brackets, read-out: IC50) is below 4.00.

Regarding `CC(c1ccccc1)n1cc(C(=O)/C=C/c2ccc([N+](=O)[O-])cc2)nn1` (stereo not drawn) [Compound 4k, (E)-3-(4-nitrophenyl)-1-(1-(1-phenylethyl)-1H-1,2,3-triazol-4-yl)prop-2-en-1-one], the pIC50 was above 4.70 and the “loss in potency (fold)” value stood at 4 fold. In addition, the pIC50 (read-out: IC50) is 4.77.

`O=C(/C=C/c1ccc([N+](=O)[O-])cc1)c1cn(C(c2ccccc2)c2ccccc2)nn1` [Compound 4l, (E)-1-(1-benzhydryl-1H-1,2,3-triazol-4-yl)-3-(4-nitrophenyl)prop-2-en-1-one]: the pIC50 was below 4.30 and the “TGase inhibitory activity (in words)” value was “relatively poor activity”. Further, where the note is “read-out: IC50”, the negative logarithm of the IC50 (pIC50) was below 4.00.

For `O=C(/C=C/c1ccc([N+](=O)[O-])cc1)c1cn(Cc2cnn[nH]2)nn1` [Compound 4m, (E)-1-(1-((3H-1,2,3-triazol-4-yl)methyl)-1H-1,2,3-triazol-4-yl)-3-(4-nitrophenyl)prop-2-en-1-one], the pIC50 was 4.30 to 4.70 and the “TGase inhibitory activity (in words)” value is listed as “relatively higher IC50 value; also recorded: high IC50”. The pIC50 (read-out: IC50) is 4.48.

Consider `COc1ccc(Cn2cc(C(=O)/C=C/c3ccc([N+](=O)[O-])cc3)nn2)cc1` [Compound 4n, (E)-1-(1-(4-methoxybenzyl)-1H-1,2,3-triazol-4-yl)-3-(4-nitrophenyl)prop-2-en-1-one], for which the negative logarithm of the IC50 (pIC50) was above 4.70. Besides, the pIC50 (read-out: IC50) is 4.85.

Consider `O=C(/C=C/c1ccc([N+](=O)[O-])cc1)c1c[nH]nn1` [Compound 4o, (E)-3-(4-nitrophenyl)-1-(1H-1,2,3-triazol-4-yl)prop-2-en-1-one], for which the pIC50 was 4.30 to 4.70 and the “TGase inhibitory activity (in words)” value was “relatively high IC50”. Besides, where the note is “read-out: IC50”, the pIC50 is 4.35.

For `O=C(C=Cc1ccc([N+](=O)[O-])cc1)On1nnc2ccccc21` [Compound 14a, p-Nitrocinnamoyl oxybenzotriazolyl amide], the “TGase inhibitory activity (in words)” value is on record as “Inhibitory activity was observed”. In addition, under setting [3], the IC50 was in the range of 20 to 50 µM. Also, the pIC50 under setting [4] is 4.37. For the same compound, the IC50 (Table 3, influence of the acylated moiety, read-out: IC50 (μM), class symbol) lay within 20 to 50 µM. The mode of inhibition result (versus acyl-donor substrate) is on record as “competitive inhibition; also recorded: competitive inhibitor”.

Turning to `O=C(C=Cc1cccc([N+](=O)[O-])c1)On1nnc2ccccc21` [Compound 14b, m-Nitrocinnamoyl oxybenzotriazolyl amide], the concentration for half-maximal inhibition (IC50) under setting [3] was 20 to 50 µM. Moreover, the pIC50 under setting [4] is 4.62.

With `O=C(C=Cc1ccccc1[N+](=O)[O-])On1nnc2ccccc21` [Compound 14c, o-Nitrocinnamoyl oxybenzotriazolyl amide], the IC50 under setting [3] is above 50 µM. Also, the pIC50 under setting [4] was below 4.00.

Regarding `O=C(C=Cc1cccc(Cl)c1)On1nnc2ccccc21` [Compound 14l, m-Chlorocinnamoyl oxybenzotriazolyl amide], the concentration for half-maximal inhibition (IC50) under setting [3] fell in the range of 20 to 50 µM. Further, the pIC50 is, setting by setting: under setting [4], 4.39; (read-out: IC50) 4.39.

As for `COc1ccc(/C=C/C(=O)n2nnc3ccccc32)cc1` [Compound 15d, p-Methoxycinnamoyl benzotriazolyl amide], the IC50 under setting [3] was above 50 µM. Besides, the pIC50 under setting [4] was below 4.00.

As to `COc1cccc(/C=C/C(=O)n2nnc3ccccc32)c1` [Compound 15e, m-Methoxycinnamoyl benzotriazolyl amide], the IC50 under setting [3] is above 50 µM. The pIC50 under setting [4] was below 4.00.

With `COc1ccccc1/C=C/C(=O)n1nnc2ccccc21` [Compound 15f, o-Methoxycinnamoyl benzotriazolyl amide], the IC50 under setting [3] was above 50 µM. Further, under setting [4], the pIC50 is below 4.00.

Regarding `Cc1ccc(/C=C/C(=O)n2nnc3ccccc32)cc1` [Compound 15g, p-Methylcinnamoyl benzotriazolyl amide], the IC50 under setting [3] was above 50 µM. Further, under setting [4], the pIC50 is below 4.00.

In the case of `Cc1cccc(/C=C/C(=O)n2nnc3ccccc32)c1` [Compound 15h, m-Methylcinnamoyl benzotriazolyl amide], under setting [3], the IC50 was above 50 µM. Further, the pIC50 under setting [4] was below 4.00.

Consider `Cc1ccccc1/C=C/C(=O)n1nnc2ccccc21` [Compound 15i, o-Methylcinnamoyl benzotriazolyl amide], for which the IC50 under setting [3] is above 50 µM. In addition, the pIC50 under setting [4] was below 4.00.

Take `O=C(/C=C/c1ccccc1)n1nnc2ccccc21` [Compound 15j, Cinnamoyl benzotriazolyl amide]: the IC50 under setting [3] was above 50 µM. Also, the pIC50 under setting [4] is below 4.00.

As to `O=C(/C=C/c1ccc(Cl)cc1)n1nnc2ccccc21` [Compound 15k, p-Chlorocinnamoyl benzotriazolyl amide], under setting [3], the IC50 is above 50 µM. Also, the pIC50 under setting [4] was below 4.00.

For `O=C(/C=C/c1ccccc1Cl)n1nnc2ccccc21` [Compound 15m, o-Chlorocinnamoyl benzotriazolyl amide], the half-maximal inhibitory concentration (IC50) under setting [3] is above 50 µM. The negative-log IC50 (pIC50) under setting [4] was below 4.00.

`CC(C)(C)OC(=O)Nc1ccc(C=CC(=O)n2nnc3ccccc32)cc1` [Compound 15n, p-(tert-Butoxycarbonylamino)cinnamoyl benzotriazolyl amide]: the IC50 under setting [3] was below 20 µM. Moreover, under setting [4], the pIC50 is 4.74.

With `CC(C)(C)OC(=O)Nc1cccc(C=CC(=O)n2nnc3ccccc32)c1` [Compound 15o, m-(tert-Butoxycarbonylamino)cinnamoyl benzotriazolyl amide], the IC50 under setting [3] lay in the range of 20 to 50 µM. The pIC50 under setting [4] is 4.41.

Values taken from patent US9162991B2 (University of Ottawa, priority 2007, dated 2015).
